Results reported in the Kinase Knowledgebase extract (Sharma et al. 2016).

Molecular target: CDK2 (human) (UniProt P24941)
Assay: Enzyme Assay

| IC50 [nM] | SMILES |
| --- | --- |
| 970 | COc1cccc(C(=O)c2sc(Nc3ccc(N4CCC(N5CCCC(O)C5)CC4)cc3)nc2N)c1 (configuration not stated) |
| 2920 | Cc1cccc(C(=O)c2sc(Nc3ccc(N4CCC(N5CCCCC5)CC4)cc3)nc2N)c1 |
| 989 | CCc1cccc(C(=O)c2sc(Nc3ccc(N4CCC(N5CCNCC5)CC4)cc3)nc2N)c1 |
| 3490 | Nc1nc(Nc2ccc(N3CCC(N4CCCC4)CC3)cc2)sc1C(=O)c1ccc2c(c1)OCCO2 |

Molecular target: CDK2 (human) (UniProt P24941)
Assay: Enzyme Assay
Remark: another data set of the same source

| IC50 [nM] | SMILES |
| --- | --- |
| 2620 | Cc1cccc(C(=O)c2sc(Nc3ccc(N4CCC(N5CCCC5)CC4)cc3)nc2N)c1 |
| 3520 | Cc1cccc(C(=O)c2sc(Nc3ccc(N4CCC(N(C)C)CC4)cc3)nc2N)c1 |
| 2920 | Cc1cccc(C(=O)c2sc(Nc3ccc(N4CCC(N5CCCCC5)CC4)cc3)nc2N)c1 |
